In ChEMBL document CHEMBL1201862, “PubChem BioAssay data set” (2004):
Calls of active or inactive are those of the source.

Key:
[1] = viability of uninfected HEp-2 cells – cell-based, HTS, cytotoxicity control for RSV inhibitor project, dose response (AID 2410); type: functional; conditions: human respiratory syncytial virus
[2] = target: T1, Corticotropin-releasing factor receptor 2/Corticotropin-releasing factor-binding protein (Homo sapiens, UniProt P24387+Q13324); experiment: activators of CRF receptor 2 with binding protein – uHTS hits, confirmation (AID 602473); type: functional; conditions: read-out: EC50_Mean
T1 sequence (Q13324 whole entry): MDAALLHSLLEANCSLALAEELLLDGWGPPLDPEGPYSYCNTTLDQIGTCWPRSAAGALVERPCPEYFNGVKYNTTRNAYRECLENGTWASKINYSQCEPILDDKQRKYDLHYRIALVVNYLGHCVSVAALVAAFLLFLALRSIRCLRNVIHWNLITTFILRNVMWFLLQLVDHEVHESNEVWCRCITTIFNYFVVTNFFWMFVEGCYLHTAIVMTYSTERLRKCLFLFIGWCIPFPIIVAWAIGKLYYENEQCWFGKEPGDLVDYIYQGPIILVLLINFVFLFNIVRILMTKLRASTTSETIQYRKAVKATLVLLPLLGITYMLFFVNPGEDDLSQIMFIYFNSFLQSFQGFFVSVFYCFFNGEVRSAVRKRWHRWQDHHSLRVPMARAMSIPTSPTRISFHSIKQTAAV
T1 sequence (P24387 whole entry): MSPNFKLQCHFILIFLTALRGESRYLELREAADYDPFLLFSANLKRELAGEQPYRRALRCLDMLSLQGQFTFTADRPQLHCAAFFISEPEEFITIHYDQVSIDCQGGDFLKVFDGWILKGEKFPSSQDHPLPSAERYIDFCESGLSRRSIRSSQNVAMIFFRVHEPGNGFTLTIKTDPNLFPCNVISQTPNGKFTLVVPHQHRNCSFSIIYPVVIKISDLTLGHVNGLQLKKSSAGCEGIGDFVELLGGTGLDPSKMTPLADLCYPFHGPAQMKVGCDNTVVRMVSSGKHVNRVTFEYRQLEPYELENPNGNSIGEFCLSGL

[3] = target: Cytochrome P450 2C9 (Homo sapiens, UniProt P11712)
[4] = target: Cytochrome P450 3A4 (Homo sapiens, UniProt P08684);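 note: CYP3A4 tested as one member of a cytochrome P450 panel screen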
[5] = target: T2, Cytochrome P450 1A2 (Homo sapiens, UniProt P05177);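 note: PubChem cytochrome P450 panel assay, CYP1A2 panel member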
T2 sequence (P05177 whole entry): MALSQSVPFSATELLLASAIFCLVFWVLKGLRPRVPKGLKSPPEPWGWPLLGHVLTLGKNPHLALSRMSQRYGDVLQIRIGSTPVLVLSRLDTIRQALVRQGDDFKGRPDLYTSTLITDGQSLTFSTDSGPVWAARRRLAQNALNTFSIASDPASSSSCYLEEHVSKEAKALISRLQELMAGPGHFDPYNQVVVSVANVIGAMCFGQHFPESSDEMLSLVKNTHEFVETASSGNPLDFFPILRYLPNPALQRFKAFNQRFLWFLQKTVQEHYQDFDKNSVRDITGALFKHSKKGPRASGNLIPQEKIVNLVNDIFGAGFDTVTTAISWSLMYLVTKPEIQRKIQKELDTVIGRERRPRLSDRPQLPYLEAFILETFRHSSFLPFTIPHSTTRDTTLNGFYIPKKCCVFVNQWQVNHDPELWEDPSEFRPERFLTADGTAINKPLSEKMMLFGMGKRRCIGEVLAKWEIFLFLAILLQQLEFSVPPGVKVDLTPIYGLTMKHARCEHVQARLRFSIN

[6] = target: Cytochrome P450 2C19 (Homo sapiens, UniProt P33261); experiment: Cytochrome panel assay with activity outcomes. Panel member name: p450-cyp2c19 Compounds with AC50 equal or less than 10 uM are considered active; type: functional; conditions: read-out: AC50
[7] = target: T1, Corticotropin-releasing factor receptor 2/Corticotropin-releasing factor-binding protein; experiment: Dose Response confirmation of uHTS hits for small molecule antagonists of the CRF-binding protein and CRF-R2 receptor complex.; type: functional; conditions: read-out: IC50_Mean
[8] = target: Cytochrome P450 2D6 (Homo sapiens, UniProt P10635)
[9] = system: Streptococcus; experiment: GAS UMAA2166 growth inhibition – luminescence, BacTiterGlo, counter-screen for streptokinase expression inhibitor project, dose response (AID 1915); type: functional, organism-based;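 note: potency for reduction of bacterial viability or growth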
[10] = system: Streptococcus sp. 'group A'; experiment: Streptococcus pyogenes SK(-)GAS viability under kanamycin – luminescence, BacTiterGlo, confirmation, counter-screen for streptokinase expression inhibitor project, dose response (AID 1900); type: functional, organism-based
[11] = Luminescence Cell-Based Dose Retest to Confirm Inhibitors of Cancer Stem Cells. [Related pubchem assays (depositor defined):AID2717, AID2721]; type: functional; conditions: Homo sapiens
[12] = target: T3, Rac GTPase-activating protein 1 (Homo sapiens, UniProt Q9H0H5); experiment: blockers of MgcRacGAP-driven Rac1 GTP hydrolysis – biochemical, ADP Hunter fluorescence, primary and confirmatory, confirmation (AID 624330); type: functional
T3 sequence (Q9H0H5 whole entry): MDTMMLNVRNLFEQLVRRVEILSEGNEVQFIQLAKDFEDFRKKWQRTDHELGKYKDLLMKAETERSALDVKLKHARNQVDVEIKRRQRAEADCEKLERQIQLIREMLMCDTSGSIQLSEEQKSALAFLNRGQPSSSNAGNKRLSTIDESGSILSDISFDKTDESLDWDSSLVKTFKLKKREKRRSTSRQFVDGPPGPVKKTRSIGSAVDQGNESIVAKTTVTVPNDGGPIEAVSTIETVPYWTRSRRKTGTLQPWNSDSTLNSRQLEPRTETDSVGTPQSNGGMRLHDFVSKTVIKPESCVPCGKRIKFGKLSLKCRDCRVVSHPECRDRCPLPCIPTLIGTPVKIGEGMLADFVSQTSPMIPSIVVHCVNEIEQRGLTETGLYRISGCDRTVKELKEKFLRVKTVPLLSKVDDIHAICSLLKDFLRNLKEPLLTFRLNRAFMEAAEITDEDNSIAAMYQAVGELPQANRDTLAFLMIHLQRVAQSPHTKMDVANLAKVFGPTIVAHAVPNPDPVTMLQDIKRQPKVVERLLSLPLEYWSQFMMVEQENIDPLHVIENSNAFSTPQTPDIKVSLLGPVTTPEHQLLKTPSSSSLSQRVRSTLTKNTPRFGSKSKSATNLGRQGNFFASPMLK

Sequence of Cytochrome P450 2C9 (P11712 whole entry): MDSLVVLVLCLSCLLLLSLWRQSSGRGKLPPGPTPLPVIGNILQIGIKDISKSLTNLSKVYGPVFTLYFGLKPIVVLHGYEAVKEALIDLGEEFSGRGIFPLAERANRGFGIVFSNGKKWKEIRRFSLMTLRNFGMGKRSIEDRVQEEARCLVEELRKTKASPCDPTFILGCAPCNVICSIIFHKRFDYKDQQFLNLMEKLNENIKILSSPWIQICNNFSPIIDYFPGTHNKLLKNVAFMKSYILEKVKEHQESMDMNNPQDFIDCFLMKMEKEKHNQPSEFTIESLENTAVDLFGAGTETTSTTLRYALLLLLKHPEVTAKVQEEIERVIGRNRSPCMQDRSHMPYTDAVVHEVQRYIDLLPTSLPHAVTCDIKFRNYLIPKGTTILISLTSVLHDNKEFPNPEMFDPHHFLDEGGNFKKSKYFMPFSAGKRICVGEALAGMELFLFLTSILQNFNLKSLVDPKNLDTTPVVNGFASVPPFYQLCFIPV
Sequence of Cytochrome P450 2C19 (P33261 whole entry): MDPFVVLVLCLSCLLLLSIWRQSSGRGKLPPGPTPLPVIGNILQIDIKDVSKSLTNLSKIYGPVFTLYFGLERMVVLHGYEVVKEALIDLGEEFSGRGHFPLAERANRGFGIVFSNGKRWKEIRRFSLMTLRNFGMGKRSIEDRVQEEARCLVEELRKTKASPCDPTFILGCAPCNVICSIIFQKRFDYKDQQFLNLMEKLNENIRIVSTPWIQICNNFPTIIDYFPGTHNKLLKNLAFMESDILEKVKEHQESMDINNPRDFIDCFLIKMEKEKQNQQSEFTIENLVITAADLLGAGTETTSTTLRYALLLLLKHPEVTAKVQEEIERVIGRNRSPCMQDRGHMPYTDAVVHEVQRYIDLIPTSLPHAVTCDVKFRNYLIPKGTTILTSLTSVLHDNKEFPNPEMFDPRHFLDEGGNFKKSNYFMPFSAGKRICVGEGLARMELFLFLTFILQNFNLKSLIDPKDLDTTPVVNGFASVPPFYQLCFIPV
Sequence of Cytochrome P450 3A4 (P08684 whole entry): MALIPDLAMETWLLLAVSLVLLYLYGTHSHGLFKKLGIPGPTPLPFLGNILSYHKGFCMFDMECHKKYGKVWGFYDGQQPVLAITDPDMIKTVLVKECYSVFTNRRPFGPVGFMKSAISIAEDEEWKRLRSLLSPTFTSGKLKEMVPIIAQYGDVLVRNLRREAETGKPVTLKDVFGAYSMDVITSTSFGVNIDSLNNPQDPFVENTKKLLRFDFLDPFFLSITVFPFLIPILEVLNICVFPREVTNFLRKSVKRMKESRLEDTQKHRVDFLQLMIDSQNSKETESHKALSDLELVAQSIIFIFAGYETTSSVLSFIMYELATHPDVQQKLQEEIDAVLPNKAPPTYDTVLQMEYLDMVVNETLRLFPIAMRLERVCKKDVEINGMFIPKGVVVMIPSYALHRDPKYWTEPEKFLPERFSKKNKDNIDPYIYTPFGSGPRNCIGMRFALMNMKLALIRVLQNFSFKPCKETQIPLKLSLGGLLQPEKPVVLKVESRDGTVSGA
Sequence of Cytochrome P450 2D6 (P10635 whole entry): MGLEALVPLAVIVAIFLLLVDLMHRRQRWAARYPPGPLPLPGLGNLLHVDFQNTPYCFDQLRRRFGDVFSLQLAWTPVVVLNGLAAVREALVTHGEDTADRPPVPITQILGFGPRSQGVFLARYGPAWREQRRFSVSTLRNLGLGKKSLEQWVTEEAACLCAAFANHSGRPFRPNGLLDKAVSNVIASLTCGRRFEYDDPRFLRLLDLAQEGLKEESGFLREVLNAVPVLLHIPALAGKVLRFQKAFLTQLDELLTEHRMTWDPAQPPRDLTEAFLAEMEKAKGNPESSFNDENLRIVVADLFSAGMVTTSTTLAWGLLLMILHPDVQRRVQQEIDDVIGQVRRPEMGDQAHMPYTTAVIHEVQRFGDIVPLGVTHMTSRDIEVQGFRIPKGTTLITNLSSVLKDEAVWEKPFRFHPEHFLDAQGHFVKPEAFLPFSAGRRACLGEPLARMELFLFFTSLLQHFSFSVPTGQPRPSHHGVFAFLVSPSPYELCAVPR

Compound: Cc1[nH]c2ccccc2c1/C=N/NC(=O)c1cccc(S(=O)(=O)Nc2cccc(C(F)(F)F)c2)c1
- CC50 [1]: 12.2 µM (active)

Compound: CCCc1nnc(NC(=O)Cn2c(=O)oc3cc(Br)ccc32)s1
- EC50 [2]: 9.87 µM (active)

Compound: CN(C)S(=O)(=O)c1ccc(C(=O)Nc2ccc(CN3CCCC3)cc2)cc1
- AC50 [3]: 1.78 µM (inconclusive)

Compound: COc1ccc(-n2c(=O)c(-c3cc(F)cc(F)c3)nc3cnc(N4CCNCC4)nc32)cc1
- AC50 [4]: 25.1 µM (inconclusive)
- AC50 [5]: 12.6 µM (inconclusive)

Compound: O=C(CSc1ccccc1)Nc1ccc(NC(=O)c2ccco2)cc1
- AC50 [3]: 20 µM (inconclusive)
- AC50 [6]: 14.1 µM (inconclusive)

Compound: COc1ccccc1NS(=O)(=O)c1cc(C(=O)NCCC(C)C)ccc1F
- EC50 [2]: 8.2 µM (active)

Compound: O=C(O)Cc1cccnc1C(=O)O
- AC50 [5]: 39.8 µM (inconclusive)

Compound: Cc1ccc(Cn2cnc3c(nnn3Cc3ccc(Cl)cc3)c2=O)cc1
- AC50 [5]: 25.1 µM (inconclusive)
- AC50 [6]: 4.47 µM (inconclusive)

Compound: C/C(CCN1CCc2nc(-c3ccccc3)c(-c3ccccc3)cc2C1)=N\O[C@@H](C)c1cc(-c2c(C)cc(C)cc2C)no1
- AC50 [4]: 3.98 µM (inconclusive)
- AC50 [3]: 0.316 µM (inconclusive)
- AC50 [6]: 0.00631 µM (inconclusive)

Compound: COc1ccc(OC)c2c1s/c(=N\C(=O)C1COc3ccccc3O1)n2C (configuration not stated)
- EC50 [2]: > 53 µM (inactive)
- IC50 [7]: > 47.1 µM (inactive)

Compound: Cc1nn(C(C)C(=O)Nc2sc3c(c2C#N)CCCC3)c(C)c1[N+](=O)[O-] (configuration not stated)
- AC50 [3]: 3.98 µM (inconclusive)

Compound: COc1ccc(-n2c(Cc3cccc([N+](=O)[O-])c3)nc3ccccc3c2=O)cc1
- CC50 [1]: > 50 µM (active)

Compound: O=C(NCCC1=CCCCC1)C1CCCN(c2nc3ccccc3o2)C1 (configuration not stated)
- AC50 [8]: 14.1 µM (inconclusive)
- AC50 [5]: 15.8 µM (inconclusive)

Compound: O=c1c(CCc2ccccc2)nc2cncnc2n1C1CC1
- AC50 [4]: 10 µM (inconclusive)
- AC50 [8]: 15.8 µM (inconclusive)
- AC50 [3]: 25.1 µM (inconclusive)
- AC50 [6]: 39.8 µM (inconclusive)

Compound: C/C(=N/NS(=O)(=O)c1ccc(Br)cc1)c1ccc(NC(=O)c2ccc(C)o2)cc1
- CC50 [1]: 38 µM (active)

Compound: CCOC(=O)N1CCN(Cc2nc3c(c(=O)n(C)c(=O)n3C)n2CCC(C)C)CC1
- EC50 [2]: > 53 µM (inactive)
- IC50 [7]: > 47.1 µM (inactive)

Compound: O=Nc1c(O)n(Cc2ccc(Cl)cc2)c2ccccc12
- AC50 [8]: 25.1 µM (inconclusive)
- CC50 [1]: 38.5 µM (active)

Compound: CCOC(=O)c1sc2nc(C)n(CC(=O)NCC3CCCO3)c(=O)c2c1C (configuration not stated)
- EC50 [2]: > 53 µM (inactive)
- IC50 [7]: > 47.1 µM (inactive)

Compound: Oc1ccc(C23CCCC2C2(CCCC2)c2ccc(O)cc2O3)c(O)c1 (configuration not stated)
- CC50 [1]: 10.6 µM (active)

Compound: CC(C)NC(=O)N1CCN(c2ccncc2S(=O)(=O)N2CCOCC2)CC1
- AC50 [3]: 35.5 µM (inconclusive)
- AC50 [6]: 39.8 µM (inconclusive)

Compound: C[C@@]12C(=O)N(c3cccc(F)c3)C(=O)N1[C@H](c1ccc(Cl)cc1)[C@@H]1C(=O)N(C3CCCCC3)C(=O)[C@@H]12
- CC50 [1]: 38.5 µM (active)

Compound: COc1ccc(-c2sc3ccc(OC)cc3c2C#CCCO)cc1
- EC50 [9]: 9.32 µM (active)
- EC50 [10]: 7.3 µM (active)
- AC50 [11]: 2.88 µM (active)

Compound: CCNc1ncc2nc(-c3cc(F)cc(F)c3)c(=O)n(C[C@H]3CCCO3)c2n1
- AC50 [4]: 15.8 µM (inconclusive)
- AC50 [5]: 3.16 µM (inconclusive)

Compound: O=S(=O)(Cc1ccccc1)N1CCC(c2nc(O)c3nnn(Cc4cccc(Cl)c4)c3n2)CC1
- CC50 [1]: 48.9 µM (active)

Compound: Cc1cccc(CNc2ccnc(-c3ccccc3Cl)n2)c1
- AC50 [3]: 0.794 µM (inconclusive)

Compound: Cc1ccccc1OCCC(=O)Nc1cc(S(=O)(=O)N2CCCCC2)ccc1N1CCN(C)CC1
- EC50 [2]: 9.71 µM (active)

Compound: Cc1ccc(CNC(=O)C2(NC(=O)Nc3ccc(C)cc3)CCCCC2)cc1
- AC50 [3]: 3.55 µM (inconclusive)
- AC50 [6]: 1.78 µM (inconclusive)

Compound: Cc1ccc(OCC(=O)NNC(=O)C2CCN(c3ncccn3)CC2)cc1
- AC50 [4]: 20 µM (inconclusive)
- AC50 [3]: 14.1 µM (inconclusive)
- AC50 [6]: 0.501 µM (inconclusive)

Compound: O=C(Nc1cccc(F)c1)c1cc(S(=O)(=O)N2CCOCC2)ccc1N1CCCC1
- EC50 [2]: > 53 µM (inactive)

Compound: CCC(CC)C(=O)c1c[nH]c(C(=O)NCCc2ccccn2)c1
- AC50 [4]: 20 µM (inconclusive)
- AC50 [5]: 14.1 µM (inconclusive)
- AC50 [3]: 39.8 µM (inconclusive)
- AC50 [6]: 20 µM (inconclusive)

Compound: Cc1cc(Nc2ccccc2)nc(N)n1
- AC50 [5]: 8.91 µM (inconclusive)

Compound: CN1/C(=C/C=C(/C#N)C(N)=O)C(C)(C)c2ccccc21
- AC50 [4]: 22.4 µM (inconclusive)
- AC50 [3]: 28.2 µM (inconclusive)

Compound: O=C(NCc1ccco1)c1cc(C(=O)C2CCCCC2)c[nH]1
- AC50 [3]: 8.91 µM (inconclusive)
- AC50 [6]: 14.1 µM (inconclusive)

Compound: Cc1ccnc(Nc2nc(-c3ccc(O)cc3)cs2)c1
- IC50 [12]: 105 µM (active)

Compound: O=C(CSc1ccc(C(F)(F)F)cc1[N+](=O)[O-])Nc1ccccc1
- AC50 [4]: 15.8 µM (inconclusive)
- AC50 [5]: 1.26 µM (inconclusive)

Compound: COc1ccc2[nH]cc(CCNc3ccnc(-c4c(C)noc4C)n3)c2c1
- AC50 [8]: 12.6 µM (inconclusive)
- AC50 [3]: 0.794 µM (inconclusive)

Compound: CCCCCCC[n+]1ccc(-c2cc[n+](CCCCCCC)cc2)cc1
- AC50 [5]: 31.6 µM (inconclusive)
- AC50 [3]: 39.8 µM (inconclusive)
- AC50 [6]: 10 µM (inconclusive)

Compound: CCOC(=O)c1cnc2c(cnn2C)c1NCCCN(C)C
- AC50 [5]: 22.4 µM (inconclusive)

Compound: C#CCN1C(C)=C(C(=O)OC)[C@@H](c2cccc([N+](=O)[O-])c2)C(C(=O)OCC)=C1C
- AC50 [8]: 15.8 µM (inconclusive)
- AC50 [5]: 12.6 µM (inconclusive)

Compound: Cn1c(=O)[nH]c(=O)c2c1nc(NCCCO)n2CCCc1ccccc1
- AC50 [3]: 12.6 µM (inconclusive)

Compound: CC(Oc1ccc(Cl)cc1Cl)C(=O)/C=C/N(C)C (configuration not stated)
- AC50 [4]: 25.1 µM (inconclusive)
- AC50 [8]: 14.1 µM (inconclusive)
- AC50 [3]: 12.6 µM (inconclusive)

Compound: CN1CCc2nc3sc(C(=O)NC(C)(C)C)c(N)c3cc2C1
- AC50 [5]: 14.1 µM (inconclusive)
- AC50 [6]: 31.6 µM (inconclusive)

Compound: O=C(CNC(=O)c1ccco1)N/N=C/c1ccc(O)cc1O
- IC50 [12]: 104 µM (active)

Compound: COc1cc(/C=C/C(=O)OCC(=O)NC2CCS(=O)(=O)C2)ccc1O (configuration not stated)
- IC50 [12]: 47.1 µM (active)
